Tests used:
[1] = molecular target: GS (mung bean); conditions: cited from earlier work
[2] = molecular target: GS (Rattus norvegicus, UniProt P09606); type: in vivo, Wistar rats; design: from tissue; host or cells: Wistar rat brain homogenate or membranes; in A19 also liver and lungs
Description: (§1) Cortex, hippocampi and thalamus/hypothalamus were carefully isolated immediately after euthanasia. Membranes were prepared and the activity of GS determined in these different structures (as mentioned above for the whole brain).

[3] = Adrenal weight of rats administered methylprednisolone; type: in vivo, Wistar rats
Description: Wistar rats were administered during 21 days once a day with methyprednisolone (5 mg/kg i.p.) plus GF (0.001, 0.01, 0.1 mg/kg), NF (1 and 10 mg/kg) or vehicle (PCB; i.p). Twenty-four hours after the last administrations, they were euthanatized. A complete necropsy was performed and main organs weighted.

[4] = molecular target: T1, Wistar rat brain GS (Rattus norvegicus, UniProt P09606); test: GS activity in Wistar rat brain homogenates; type: biochemical; conditions: in absence of 2β-ME
T1 construct: from tissue; host or cells: Wistar rat brain homogenate or membranes; in A19 also liver and lungs
T1 sequence (P09606 2-373 limits assumed): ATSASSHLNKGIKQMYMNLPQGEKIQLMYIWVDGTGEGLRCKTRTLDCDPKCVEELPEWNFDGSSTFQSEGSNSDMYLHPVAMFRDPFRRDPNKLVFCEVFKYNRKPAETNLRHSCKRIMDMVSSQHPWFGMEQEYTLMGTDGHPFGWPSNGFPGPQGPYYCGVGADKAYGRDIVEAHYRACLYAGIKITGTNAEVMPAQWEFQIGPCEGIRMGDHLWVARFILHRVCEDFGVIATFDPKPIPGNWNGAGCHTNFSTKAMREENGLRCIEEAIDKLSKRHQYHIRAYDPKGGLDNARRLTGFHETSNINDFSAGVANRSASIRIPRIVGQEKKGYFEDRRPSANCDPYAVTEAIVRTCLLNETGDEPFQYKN
Description: GS activity was assessed as mentioned above for purified sheep brain GS.

[5] = molecular target: T2, glutamine synthetase (Rattus norvegicus, UniProt P09606); test: Proteins precipitated by NF from rat brain homogenate (mass spectrometry); type: binding; conditions: 8% gel, native conditions
T2 construct: Wistar rat brain homogenates were incubated with naftazone; from tissue; host or cells: Wistar rat brain homogenate or membranes; in A19 also liver and lungs
T2 sequence (P09606 2-373 limits assumed): as above

[6] = molecular target: GS (Mus musculus, UniProt P15105); type: in vivo, BALB/c mice; design: from tissue; host or cells: mouse brain (whole brain, cortex, hippocampus, thalamus/hypothalamus); conditions: 24 h after single i.p., NF 10 and 100 mg/kg
Chain of GS (Mus musculus, UniProt P15105) (P15105 2-373 limits assumed): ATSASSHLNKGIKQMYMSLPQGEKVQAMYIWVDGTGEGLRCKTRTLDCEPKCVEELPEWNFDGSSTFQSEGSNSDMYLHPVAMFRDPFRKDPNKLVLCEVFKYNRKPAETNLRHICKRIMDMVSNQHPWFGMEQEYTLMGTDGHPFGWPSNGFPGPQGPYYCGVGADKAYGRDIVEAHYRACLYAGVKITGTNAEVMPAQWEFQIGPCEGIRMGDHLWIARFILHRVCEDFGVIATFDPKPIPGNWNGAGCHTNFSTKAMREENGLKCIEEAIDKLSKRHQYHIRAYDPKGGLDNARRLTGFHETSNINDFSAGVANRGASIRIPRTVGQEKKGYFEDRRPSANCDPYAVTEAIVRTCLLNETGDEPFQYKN
Description: as §1

[7] = molecular target: T3, purified pig brain GS (Sus scrofa, UniProt P46410); test: Interaction of NF and purified pig GS (agarose diffusion, precipitation, spot blot, western blot); type: binding
T3 construct: Fifty microlitre of purified pig brain GS (3 mg/ml) was added to one peripheral well; from tissue; host or cells: pig brain (purified enzyme)
T3 sequence (P46410 2-373 limits assumed): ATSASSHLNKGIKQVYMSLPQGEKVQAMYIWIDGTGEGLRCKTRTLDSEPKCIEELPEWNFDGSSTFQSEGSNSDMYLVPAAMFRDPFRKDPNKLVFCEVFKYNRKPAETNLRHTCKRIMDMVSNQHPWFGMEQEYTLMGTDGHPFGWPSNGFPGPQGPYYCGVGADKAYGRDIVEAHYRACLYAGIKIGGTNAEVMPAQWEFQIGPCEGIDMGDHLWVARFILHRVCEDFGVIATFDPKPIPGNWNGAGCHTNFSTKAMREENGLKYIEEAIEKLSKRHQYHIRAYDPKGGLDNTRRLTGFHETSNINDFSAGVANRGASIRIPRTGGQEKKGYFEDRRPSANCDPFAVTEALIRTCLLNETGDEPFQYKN
Description: Five ml of agarose 0.1% were let to polymerise in a Petri dish. Five wells with equal volume and distance from each other, 1 central and 4 peripherals, were made on it using a 300 μl tip. The central well was filed with 50 μl of NF solution ([…]). Fifty microlitre of purified pig brain GS (3 mg/ml) was added to one peripheral well. In two other wells either 50 μl of TBS or FCS was added. The gel was humidified and left at 37° C. for 48 h.
The final concentration of methanol per assay tube was 10% V/V. Fixed (3 mg/ml) or variable (0.023 to 3 mg/ml) concentrations of either purified brain pig GS or rat brain homogenates were added to each assay tube. The tubes were incubated a room temperature for 5 min. Methanol (10%) and FCS were used as negative controls. The tubes were thereafter centrifuged at 700 g. Supernatant was discarded and the pellets were suspended in 100 μl working buffer and incubated for 15 min at 37° C. The reaction was finally stopped and absorbance was measured as described above.
Twenty μl of agarose gel with precipitated NF/protein complexes issued from diffusion study was applied to methanol activated PVDF membrane. Non-specific binding sites were blocked by 5% low fat skimmed milk in TBS buffer, supplemented with 0.1% tween 20. Transferred proteins were allowed to react with either polyclonal rabbit anti-GS (1/3000) or anti-GR (1/3000) antibodies for 30 min at room temperature. After one quick wash with TBS, 0.1% tween 20, horseradish peroxidase conjugated goat anti-rabbit antibody was subjected (1/5000) to the transferred proteins for 30 min at room temperature.
Twenty μl per well of precipitated NF/protein complex were separated on 8% SDS-PAGE gel in absence or presence of 2β-mercaptoethanol. The proteins separated in presence or the absence of SDS were thereafter transferred to a nitrocellulose membrane ([…]). Non-specific binding sites were blocked by 5% low fat skimmed milk in TBS buffer, supplemented with 0.1% tween 20. Transferred proteins were thereafter allowed to react with either polyclonal rabbit anti-GS (1/3000) or anti-GR (1/3000) antibodies for 30 min at room temperature. After one quick wash with TBS, 0.1% tween 20, horseradish peroxidase conjugated goat anti-rabbit antibody was subjected (1/5000) to the transferred proteins for 30 min at room temperature.

Chain of GS (Rattus norvegicus, UniProt P09606) (P09606 2-373 limits assumed): as the sequence (P09606 2-373 limits assumed) above

GS activity in the cortex ([2]; NF 1 and 10 mg/kg i.p.)	GS activity in the hippocampus ([2]; NF 1 and 10 mg/kg i.p.)	GS activity in the thalamus/hypothalamus ([2]; NF 1 and 10 mg/kg i.p., twenty four hours after administration)	dose of maximum effect on hippocampus GS activity ([2]; rat, in vivo)	“high” concentration range inhibiting GS activity [4]	presence of G-actin in the isolated band [5]	presence of glutamine synthetase in the isolated band [5]	GS activity in the hippocampus [6]	GS activity in the thalamus/hypothalamus ([6]; GF 1 mg/kg)	interaction between NF and purified pig GS in agarose (0.1%) gel ([7]; Commassie blue)	precipitation of GS protein by different concentration of NF ([7]; NF 6.3e^−19 to 4.8e^−7 M, GS 3 mg/ml)	precipitated proteins subjected to rabbit anti-GR antibodies ([7]; purified pig GS and whole rat brain homogenates)	Compound	Ki [1]	adrenal weight ([3]; GF 0.001, 0.01, 0.1 mg/kg, NF 1 and 10 mg/kg, methyprednisolone 5 mg/kg i.p., 21 days, versus PCB)	dose relation of the effect on adrenal weight ([3]; rat, in vivo)	identity of the precipitated protein (dotblot) ([7]; anti-GS antibodies)
–	–	–	–	–	–	–	–	–	–	–	–	NC1(C(=O)O)CCC(P(=O)(O)O)C1 (centres unmarked) [Cyclopentane phosphinothricin, 1-Amino-3-phosphono-cyclopentane-carboxylic acid]	470 nM	–	–	–
No significant treatment-effect	increased GS activity	dose-dependently decreased GS activity	1 mg/kg	10^−12 to 10^−14 M	70%	30%	trend to an increase of GS activity	decreased	revealed a clear precipitated protein	precipitated dose dependently GS protein	did not reveal any protein	NC(=O)NN=C1C=Cc2ccccc2C1=O [NF, 1-oxo, 2 naphtyl semicarbazone]	–	higher	dose-dependent effect	revealed specifically glutamine synthetase
–	–	–	–	–	–	–	–	–	–	–	–	NC1(C(=O)O)COC(P(=O)(O)O)C1 (centres unmarked) [Tetrahydrofuran phosphinothricin, 3-Amino-5-phosphono-tetrahydro-furan-3-carboxylic acid]	5000 nM	–	–	–

From patent publication US20090209474A1, “NOVEL USES FOR DRUGS TARGETING GLUTAMINE SYNTHETASE” (NEWTHERA, priority 2005, published 2009)
